Laboratory results as given in patent publication US4845123A, “Reduction in vivo of the inappropriate levels of endogenous and environmental-derived compounds by sustained-release inhibitors of β- g” (priority 1985, dated 1989).
“Also recorded” adds a separate entry of the source.

What was measured:
60 kd oncofetal protein [1] = conditions: rat, in vivo; for Plasma concentration of the 60 kd protein at 21 days post-treatment with PAH: ip
60 kd oncofetal protein [2] = assay: effect of β-glucuronidase inhibitors on carcinogen induction of the 60 kd factor in plasma (cell-free RNA transport assay); format: in vivo, rat; conditions: rat, in vivo
serum β-glucuronidase = molecular target: T1, serum β-glucuronidase (Rattus norvegicus, UniProt P06760); assay: in vivo; format: in vivo; conditions: rat, in vivo
T1 sequence (P06760 23-648): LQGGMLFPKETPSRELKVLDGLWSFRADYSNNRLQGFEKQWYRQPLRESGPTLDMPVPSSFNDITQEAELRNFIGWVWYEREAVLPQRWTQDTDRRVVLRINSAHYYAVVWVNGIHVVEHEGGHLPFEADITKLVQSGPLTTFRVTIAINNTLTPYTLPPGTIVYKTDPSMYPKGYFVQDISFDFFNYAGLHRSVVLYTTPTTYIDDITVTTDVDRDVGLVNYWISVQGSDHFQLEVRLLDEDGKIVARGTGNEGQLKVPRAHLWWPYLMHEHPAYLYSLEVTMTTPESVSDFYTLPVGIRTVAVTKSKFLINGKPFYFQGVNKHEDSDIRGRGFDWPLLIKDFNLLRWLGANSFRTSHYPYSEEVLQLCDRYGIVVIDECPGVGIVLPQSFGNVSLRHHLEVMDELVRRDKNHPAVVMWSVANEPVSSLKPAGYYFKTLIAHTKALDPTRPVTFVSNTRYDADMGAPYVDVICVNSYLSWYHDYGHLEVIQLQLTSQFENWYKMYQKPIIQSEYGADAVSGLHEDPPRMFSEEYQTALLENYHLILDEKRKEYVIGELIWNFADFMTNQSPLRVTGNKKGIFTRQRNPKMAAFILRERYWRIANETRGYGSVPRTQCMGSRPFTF
Experimental: GL was synthesized and microencapsulated to give sustained-release GL (EGL), by an established procedure used to microencapsulate ascorbic acid, as reported in Samejima, M. et al., Chem. Pharm. Bull., (Tokyo) 1982, 30:2894-2899. In this procedure, the GL as a fine powder is added to a stirred mixture of cyclohexane, polyisobutylene as coacervation-inducing agent and ethylcellulose as wall-forming material. The addition of GL is at 78° C., then phase separation is induced by lowering the temperature first to 40° C., then to 25° C. The microcapsules, which have thick walls, are washed with cyclohexane and dried. […] DAGDL, calcium D-glucarate (CGT), and potassium hydrogen D-glucarate (PGT) were synthesized. For comparison of efficacy of the inhibitors, 1,5 mmoles/kg (GL, EGL or DAGDL) or 4.5 mmoles/kg (CGT or PGT) of the inhibitor in 1.0 ml of sesame oil or vehicle only (controls) was administered to rats by stomach tube at zero time. Blood samples were obtained from different rats by cardiac puncture under ether anesthesia. The serum was prepared and assayed for β-glucuronidase activity using a commerical diagnostic kit sold by Sigma Chemical Company, St. Louis, MO. The assay is based on the hydrolysis of phenolphthalein-glucuronide and quantitation of phenolphthalein in alkaline medium at […]. For tests of anti-carcinogencity, the inhibitors were administered by stomach tube in 1.0 ml of sesame oil 30 minutes before and again at 2.5 hours after the carcinogen, for DAGDL, or 3 hours and 30 minutes before the carcinogen, for EGL, CGT, and PGT. The controls received sesame oil only by stomach tube.
At the time periods indicated above blood samples were obtained from rats under ether aneathesia by cardiac puncture, the serum was then prepared and assayed for β-glucuronidase activity using a commercial diagnostic kit sold by Sigma Chem. Co., St. Louis, MO.
For the inhibition of the initiation stage, CGT was given by gavage in two doses (4.5 mmoles/kg/dose) at 3 hours and again at 0.5 hours before carcinogen administration. […] The concentrations of CGT were incorporated into the powdered chow diet. The blood samples were obtained 10 days after the initiation of the CGT feeding.
DAGDL or GL (1.5 mmol/kg) in 1.0 ml of sesame oil, or vehicle only (controls) was administered to rats by stomach tube at zero time. […] The serum was prepared and assayed for β-glucuronidase activity using a commercial diagnostic kit sold by Sigma Chemical Company, St. Louis, MO. The assay is based on the hydrolysis of phenolphthalein-glucuronide and quantitation of phenolphtalein in alkaline medium at 550 nm.

β-glucuronidase = conditions: cited from earlier work
bladder tumor = conditions: rat, in vivo; cited from earlier work
bladder cancer = conditions: dog, in vivo; cited from earlier work
[3] = in vivo; cited from earlier work
bladder tumors = conditions: human, in vivo; cited from earlier work
[4] = equilibrated aqueous solution; cited from earlier work
[5] = rat, in vivo, iv, cited from earlier work

SMILES	Plasma concentration of the 60 kd protein at 21 days post-treatment with PAH (60 kd oncofetal protein [1])	Treatment -I: total concentration of 60 kd factor induced by the carcinogen (60 kd oncofetal protein [1])	other results
c1cc2ccc3cccc4ccc(c1)c2c34 [Pyrene]	0.0	–	–
CCCCN(CCCC)N=O [N--Nitrosodibutylamine, N-nitroso-N,N-dibutylamine]	–	5.44	–
Cc1c2ccccc2c(C)c2c1ccc1ccccc12 [7,12-Dimethylbenz[a]anthracene, 7,12-dimethylbenz[a]anthracene]	6.42	–	overall inhibition of PAH-mediated carcinogenesis, as inhibition of 60 kd oncofetal protein induction (60 kd oncofetal protein [2]): 75%
Cc1ccc2cc3c(ccc4ccccc43)c3c2c1CC3 [3-Methylcholanthrene, 3-methyl-1,2-dihydrobenz[j]aceanthrylene]	6.82	5.62	overall inhibition of PAH-mediated carcinogenesis, as inhibition of 60 kd oncofetal protein induction (60 kd oncofetal protein [2]): 50%
Nc1ccc2ccccc2c1 [2-Naphthylamine, 2-naphthylamine]	–	3.29	–
O=C(O)[C@@H](O)[C@@H](O)[C@H](O)[C@@H](O)C(=O)[O-].[K+] [PGT, potassium hydrogen D-glucarate]	–	–	Percent Inhibition of the induction of the 60 kd factor (60 kd oncofetal protein [2]): 65%; Treatment +I: total concentration of 60 kd factor (60 kd oncofetal protein [2]): 2.25; time-course of serum β-glucuronidase inhibition (serum β-glucuronidase): prolonged inhibition
O=C(O)[C@@H](O)[C@H]1OC(=O)[C@H](O)[C@H]1O [GL, D-glucaro-1,4-lactone, reference compound]	–	–	inhibition of β-glucuronidase in vitro (β-glucuronidase): potent inhibitor; effect on 2-acetylaminofluorene carcinogenesis (bladder tumor): unsuccessful; prevention of bladder cancer induced with 2-naphthylamine (bladder cancer): without any success; administered compound excreted unchanged in urine [3]: less than 50%; rate of metabolism and excretion [3]: rapidly metabolized; clinical effect in prevention of bladder tumors (bladder tumors): failed to show any clear beneficial effects; depression of serum β-glucuronidase (serum β-glucuronidase): approximately 50%; reversibility of inhibition by prolonged dialysis (serum β-glucuronidase): could be reversed; time-course of serum β-glucuronidase inhibition (serum β-glucuronidase): only a transient inhibition; also recorded: transient nature of the inhibition
CN(C)N=O [N--Nitrosodimethylamine, N-nitroso-N,N-dimethylamine]	–	3.40	–
CCN(CC)N=O [N--Nitrosodiethylamine, N-nitroso-N, N-diethylamine]	–	4.21	–
C=CCc1ccc2c(c1)OCO2 [Safrole, safrole]	–	5.90	–
O=[N+]([O-])c1ccc2ccc3cccc4ccc1c2c34 [1-Nitropyrene, reference compound]	5.30 units	–	overall inhibition of PAH-mediated carcinogenesis, as inhibition of 60 kd oncofetal protein induction (60 kd oncofetal protein [2]): 50%
c1ccc2cc3c(ccc4ccccc43)cc2c1 [Benz[a]anthracene]	4.92	–	–
O=C(O)[C@@H](O)[C@@H](O)[C@H](O)[C@@H](O)C(=O)O [glucarate]	–	–	fraction of glucarate converted to GL [4]: approximately one-third
c1ccc2c(c1)c1cccc3ccc4cccc2c4c31 [Benzo[e]pyrene]	3.37	–	–
c1ccc2cc3ccccc3cc2c1 [Anthracene]	0.0	–	–
Cc1c2ccccc2c(C)c2c1ccc1ccc(F)cc12 [2-Fluoro-7,12-dimethylbenz[a]anthracene]	0.0	–	–
CCN(N=O)C(N)=O [N--Nitrosoethylurea, N-nitroso-N-ethylurea]	–	4.50	–
COc1cc2c(c3oc(=O)c4c(c13)CCC4=O)[C@@H]1C=CO[C@@H]1O2 [Aflatoxin B1, aflatoxin B1]	–	4.37	–
COc1cc2c(c3oc(=O)c4c(c13)CCOC4=O)[C@@H]1CCO[C@@H]1O2 [Aflatoxin G2, aflatoxin G2]	–	3.80	–
CNNC [1,2-Dimethylhydrazine, 1,2-dimethylhydrazine]	–	5.40	–
CC(=O)Nc1ccc2c(c1)Cc1ccccc1-2 [2-Acetyalaminofluorine, 2-acetylaminofluorene]	–	5.11	–
c1ccc2c(c1)cc1ccc3cccc4ccc2c1c34 [Benzo[a]pyrene]	7.73	7.73	dose excreted in bile ([5]; 6 h): ~60%; biliary metabolites being glucuronides [5]: 40%; overall inhibition of PAH-mediated carcinogenesis, as inhibition of 60 kd oncofetal protein induction (60 kd oncofetal protein [2]): 75%
c1ccc2c(c1)Cc1ccccc1-2 [Fluorene]	0.0 units	–	–
CN(N=O)C(N)=O [N--Nitrosomethylurea, N-nitroso-N-methylurea]	–	4.69	60 kd factor in plasma, MNU without inhibitor (60 kd oncofetal protein [1]): 4.6
